From patent US12263156B2, “Use of small molecule inhibitors of the BfrB:Bfd interaction in biofilms” (priority 2020, dated 2025)
Several values for one entry are separate records, joined by “and”; a condition that tells them apart may be missing. Equal values may be shown once.

Key:
P. aeruginosa PAO1 = experiment: Half maximal inhibitory concentration (IC50) of planktonic growth, CFU/mL enumeration; format: cell-based, Pseudomonas aeruginosa; conditions: for IC50: Pseudomonas aeruginosa, PAO1
Protocol: Chemicals were purchased from Fisher Scientific (Waltham, MA) unless otherwise stated. P. aeruginosa PAO1 was obtained from the University of Washington Genome center.^80 The PAO1 strain expressing enhanced yellow fluorescent protein (EYFP) was prepared as described in Soldano, A.; Yao, H.; Chandler, J. R.; Rivera, M. (2020) Inhibiting Iron Mobilization from Bacterioferritin in Pseudomonas aeruginosa Impairs Biofilm Formation Irrespective of Environmental Iron Availability. ACS Infect. Dis. 6, 447-458. 10.1021/acsinfecdis.9b00398.^26 Clinical isolates of P. aeruginosa were purchased from JMI Laboratories (North Liberty, IA, USA). […] Starter cultures of P. aeruginosa PAO1 in 5 mL LB media were grown for 13 hours in 50 mL conical tubes at 37° C. and 220 rpm. For biofilm experiments, a EYFP-expressing P. aeruginosa strain was routinely grown in Pseudomonas Isolation (PI) media (20 g L^−1 peptone, 0.3 g L^−1 MgCl2·6H O, 10 g L^−1 K2SO4, 25 mg L^−1 irgasan, and 20 mL L^−1 glycerol, pH 7.0). Starter cultures were grown from a single colony at 37° C. and shaking at 220 rpm for 14 hours in 5 mL PI media supplemented with 10 μM Fe. Pellicle biofilms were cultured for 48 hours at 30° C. in PI media supplemented with 20 μM Fe. Surface-attached biofilms were cultured in AB minimal media^81 supplemented with trace metals [0.15 μM (NH4)2MoO4, 3 μM CuSO4, 2 μM Co(NO3)2, 9.4 μM Na2B4O7, and 7.6 μM ZnSO4], 3 mM glucose and 15 μM Fe. Iron supplementation was carried out by addition of a small volume of filter-sterilized 10 mM (NH4)2Fe(SO4)2 (pH˜2.0) solution. […]; IC50 values (Table 1 below) were determined as reported previously^25 with small modifications. In brief: precultures of P. aeruginosa PAO1 (5 mL) were grown in LB media for 13 hours at 37° C. and 220 rpm in 50 mL conical tubes (VWR International, PA). The cells were centrifuged for 5 min at 4,000 rpm and 4° C., washed two times and then diluted in buffer (100 mM KH2PO4 and 15 mM (NH4)2SO4 to an optical density at 600 nm (OD600) of 0.1. A small volume of compound stock solution (10 mM) was transferred to a microcentrifuge tube, initially diluted with DMSO to 20 μL, and then diluted to 1 mL with preculture cell suspension in defined media with OD600=0.0001, so the final DMSO concentration is 2%. The resultant cell suspension (200 μL) was transferred to a clear-bottom polystyrene 96-well plate (VWR International, PA) covered with a lid and incubated at 35° C. and 205 cpm for 24 h in a Synergy H1 microplate reader (Biotek Instruments Inc., Winooski, VT). The cell cultures were serially diluted and then plated on PI Agar (PIA; BD Biosciences, San Jose, CA) plates for enumeration of viable cells (CFU/mL). The % growth was calculated from the ratio CFU/mL(treated)/CFU/mL(untreated control). To calculate the IC50 values, the % growth was plotted as a function of compound concentration, expressed as log[compound] (μM), and fitted to the 4-parameter logistic model describing the sigmoid-shaped response pattern (equation 1),^83 where b is the slope factor, max is the upper asymptote (plateau), and min is the lower asymptote. Values are the average and standard deviation from three independent experiments.

BfrB (apo-BfrB) = BfrB (apo-BfrB) (Pseudomonas aeruginosa (strain ATCC 15692 / DSM 22644 / CIP 104116 / JCM 14847 / LMG 12228 / 1C / PRS 101 / PAO1), UniProt Q9HY79); experiment: Fluorescence polarization measurement of dissociation constant (Kd); format: binding; conditions: for Kd: 100 mM potassium phosphate buffer pH 7.6, 1 mM TCEP, 0.5% DMSO, average ± SD
Protocol: Values were obtained in 100 mM potassium phosphate buffer (pH 7.6) containing 1 mM TCEP and 0.5% DMSO. The initial concentrations of KM-5-25 and KM-5-66 were 5 μM. The Kd values are the average and standard deviation from three independent measurements. […] The IC50 values are the average and the standard derivations from three independent experiments.
Prior to testing the effect that the 4-substituted isoindoline-1,3-dione derivatives might exert on P. aeruginosa cells, the strength of their interaction with BfrB was evaluated in vitro with a fluorescence polarization assay developed based on the intrinsic fluorescence of the isoindoline-1,3-dione moiety.

[1] = tested on: EYFP-expressing P. aeruginosa PAO1 pellicle biofilms; experiment: Determination of viable cells (CFU/mL) in pellicle biofilms; conditions: for % cell survival, CFU/mL(after treatment)/CFU/mL(pre-treatment): 2-day old pellicles, 24 h
Protocol: (§1) Pellicle biofilms of EYFP-expressing P. aeruginosa PAO1 or clinical isolates were grown in PI media supplemented with 20 μM Fe. Starter cultures were diluted to OD600=0.001 in 4 mL media, placed in 35×10 mm petri dishes and incubated statically at 30° C. for 48 hours. The pellicles were transferred onto circular (1.5 cm diameter) glass coverslips by gently allowing the surface of a coverslip to contact a pellicle. The pellicle-adhered coverslip was washed in PBS and then deposited on top of 1.5 mL of AB challenge media contained in a well of a 12-well microplate, with the pellicle exposed to the media. […] The coverslip-adhered pellicles were exposed to challenge media at 30° C. for 24 hours, changing the challenge media every 12 hours by transferring the pellicle-adhered coverslip to a new plate containing pre-warmed challenge media.
Pellicle biofilms were grown as described above. Planktonic and loosely attached cells were washed (3 times) by immersing the coverslip-adhered pellicles (biofilm facing up) into a well of a 12-well plate containing 3 mL of PBS, and incubating (5 min) with gentle rocking. To remove the pellicle from the coverslip, break the extracellular matrix and release cells from the biofilm, the coverslip-adhered pellicle was placed in a 50 mL conical tube containing a 2 mL suspension of zirconia beads (0.1 mm diameter, BioSpec Products), 10 mL PBS, 0.2 μg/mL alginate lyase and 0.2 μg/mL DNAse. The resultant mixture was incubated at room temperature for 3 min, followed by vigorous vortexing for 4 min. After sedimentation of the zirconia beads, a 100 μL aliquot was used for serial dilution and plating on PIA plates for subsequent enumeration of viable cells (CFU/mL).
To assess the efficacy of antibiotics and compounds with an approach complementary to imaging with CLSM, dispersing biofilm cells for subsequent enumeration of viable cells (CFU/mL) was resorted to. […] The biofilms were then harvested, and the cells dispersed into sterile PBS by vortexing in the presence of zirconia beads, prior to plating the cell suspensions for subsequent enumeration of CFU/mL. […] A characteristic of cells in the VBNC state is their inability to develop into colonies on routine culture media, even though the cells remain viable for long periods of time.^58-59 Evidence that bacterial cells can enter the VBNC has been obtained by several distinct methods,^59 one of which is the utilization of bacteria engineered to constitutively express bioluminescent proteins, and using the bioluminescence as a reporter of metabolic activity.

Aqueous solubility = format: physicochemical; conditions: aqueous solution
P. aeruginosa = conditions: reported MIC; cited from earlier work
[2] = tested on: EYFP-expressing P. aeruginosa PAO1 pellicle biofilms; experiment: Pellicle biofilm assay (CLSM imaging, COMSTAT biomass); format: cell-based, Pseudomonas aeruginosa; conditions: 24 h; for tolerance or susceptibility of pellicle biofilms (CLSM): 2-day old pellicles, ciprofloxacin, tobramycin 25× and 50× the MIC, colistin above 10× the MIC
Protocol: as §1
Excess fluorescent dye was washed with PBS, the coverslip was mounted on a glass slide using 5 μL of SlowFade (Invitrogen, Carlsbad, CA) and the edges sealed with fingernail polish. CLSM image stacks (z-step size of 0.3 μm) were acquired with the aid of a Leica TCS SP8 microscope, as described above. Quantitative analysis was performed by determination of pellicle biomass using COMSTAT^54 and the Otsu method of automatic thresholding.^85
To expand the observations made with flow cell biofilms into a second biofilm model, the susceptibility of biofilms grown at the air-liquid interface (pellicles) was also studied.^56-57 Pellicle biofilms (henceforth pellicles) are an attractive alternative platform to study biofilms because pellicles are amenable to imaging by CLSM and to harvesting, which can be desirable for additional biofilm analysis.^26 To determine the susceptibility of pellicles to antibiotics or inhibitors of the BfrB-Bfd complex, 2-day old pellicles of EYFP-expressing P. aeruginosa cells were cultured in PI media supplemented with 20 μM Fe. The pellicles were transferred onto glass coverslips by allowing the surface of the coverslip to contact a pellicle.

[3] = tested on: EYFP-expressing P. aeruginosa PAO1 biofilms; experiment: Flow cell biofilm assay (CLSM imaging, COMSTAT biomass); format: cell-based, Pseudomonas aeruginosa; conditions: 3-day old flow cell biofilms, 24 h treatment at 25× the MIC
Protocol: ACS Infect. Dis. […] The experimental shear stress was 0.14-dyn/cm^2 (shear rate=14 s^−1, pressure=7.1 mbar, flow rate=0.4 mL/min) and the switch time was set to 540 s. […] During biofilm growth and challenge with antibacterial, the culture medium in the reservoirs was removed every 12 hours and replaced with fresh pre-warmed medium. […] The biofilms were imaged with the aid of a Leica TCS SP8 confocal microscope (Leica Microsystems, Germany) using a HC PL apo CS2 63×/1.4 oil objective. […] Image stacks were acquired with a z-step size of 0.3 μm at randomly chosen positions. The Leica Application Suite X (LAS-X) software was used for image stack processing.^54 Quantitative analysis of biofilm biomass was performed using the COMSTAT computer program^54 and the Otsu method of automatic thresholding.^85
The treated biofilms were counterstained with the cell impermeable fluorescent nucleic acid dye Sytox Red and then imaged with the aid of confocal laser scanning microscopy (CLSM).

[4] = planktonic growth, 24 h, 35° C, defined media, 2% DMSO, average ± SD of three experiments

Compound: Nc1cccc2c1C(=O)NC2=O [Analog 8]
- IC50 (μM) (P. aeruginosa PAO1; [4]): Not active

Compound: O=C1NC(=O)c2c(NCc3ccccc3O)cccc21 [Analog 11]
- IC50 (P. aeruginosa PAO1; [4]): 258 ± 23 µM

Compound: O=C1NC(=O)c2c(NCc3cccc(O)c3)cccc21 [Analog 12]
- IC50 (P. aeruginosa PAO1; [4]): > 120 µM
- Kd (BfrB (apo-BfrB)): 21 ± 3 µM

Compound: O=C1NC(=O)c2c(NCCCc3cccc(O)c3)cccc21 [Analog 16]
- relative compound activity (rank order) ([1]; pellicles treated 24 h with 50 μM of each analog): KM-5-66>KM-5-25>16>11
- IC50 (P. aeruginosa PAO1; [4]): 121 ± 4 µM
- Kd (BfrB (apo-BfrB)): 1.5 ± 0.25 µM

Compound: O=C1NC(=O)c2c(NCCCc3cc(F)ccc3O)cccc21 [JAG-5-6]
- IC50 (P. aeruginosa PAO1; [4]): 54 ± 9 µM
- fold decrease in IC50 relative to KM-5-28 (P. aeruginosa PAO1; relative to KM-5-28): ~2 fold
- Kd (BfrB (apo-BfrB)): 0.43 ± 0.07 µM
- fold lowered Kd relative to KM-5-28 (BfrB (apo-BfrB); relative to KM-5-28): ~3 fold

Compound: O=C1NC(=O)c2c(NCc3cc(F)ccc3O)cccc21 [JAG-5-7, 4-((5-Fluoro-2-hydroxybenzyl)amino)isoindoline-1,3-dione]
- IC50 (P. aeruginosa PAO1; [4]): 128 ± 26 µM
- Kd (BfrB (apo-BfrB)): 7 ± 2 µM

Compound: O=C1NC(=O)c2c(NCCCc3ccccc3O)cccc21 [KM-5-28]
- IC50 (P. aeruginosa PAO1; [4]): 96 ± 1 µM
- Kd (BfrB (apo-BfrB)): 1.4 ± 0.2 µM

Compound: O=C1NC(=O)c2c(NCc3c(O)cccc3Cl)cccc21 [KM-5-29, 4-((6-Chloro-2-hydroxybenzyl)amino)isoindoline-1,3-dione]
- Kd (BfrB (apo-BfrB)): 6 ± 0.5 µM
- aqueous solubility (in words) (Aqueous solubility): poorly soluble in aqueous solution

Compound: O=C1NC(=O)c2c(NCc3cccc(Cl)c3O)cccc21 [KM-5-30, 4-((3-Chloro-2-hydroxybenzyl)amino)isoindoline-1,3-dione]
- IC50 (P. aeruginosa PAO1; [4]): 156 ± 30 µM
- fold larger IC50 relative to KM-5-25 (P. aeruginosa PAO1; relative to KM-5-25): ~2.5 fold
- Kd (BfrB (apo-BfrB)): 6 ± 1 µM

Compound: O=C1NC(=O)c2c(NCc3cc(O)cc(Cl)c3)cccc21 [KM-5-50, 4-((5-Chloro-3-hydroxybenzyl)amino)isoindoline-1,3-dione]
- IC50 (P. aeruginosa PAO1; [4]): 82 ± 16 µM
- Kd (BfrB (apo-BfrB)): 11 ± 2 µM

Compound: O=C1NC(=O)c2c(NCCCc3cc(Cl)ccc3O)cccc21 [KM-5-54]
- Kd (BfrB (apo-BfrB)): 0.22 ± 0.04 µM
- fold increase of binding affinity relative to JAG-5-6 (BfrB (apo-BfrB); relative to JAG-5-6): 2 fold
- aqueous solubility (in words) (Aqueous solubility): poor water solubility

Compound: O=C1NC(=O)c2c(NCCCc3cc(O)cc(O)c3)cccc21 [KM-5-57]
- IC50 (P. aeruginosa PAO1; [4]): > 200 µM
- Kd (BfrB (apo-BfrB)): 2.5 ± 0.4 µM
- fold increase of Kd relative to 16 (BfrB (apo-BfrB); relative to 16): ~1.7 fold

Compound: O=C(O)c1cn(C2CC2)c2cc(N3CCNCC3)c(F)cc2c1=O [ciprofloxacin]
- MIC (P. aeruginosa): 0.25 μg/mL and 0.75 μM

Compound: NC[C@H]1O[C@H](O[C@H]2[C@H](O)[C@@H](O[C@H]3O[C@H](CO)[C@@H](O)[C@H](N)[C@H]3O)[C@H](N)C[C@@H]2N)[C@H](N)C[C@@H]1O [tobramycin, reference compound]
- % cell survival, CFU/mL(after treatment)/CFU/mL(pre-treatment) ([1]; antibiotic at 25× the MIC): ~70%
- % cell survival, CFU/mL(after treatment)/CFU/mL(pre-treatment) ([1]; antibiotic at 50× the MIC): ~70%
- tolerance or susceptibility of pellicle biofilms (CLSM) [2]: tolerant
- MIC (P. aeruginosa): 0.5 μg/mL and 1.07 μM
- % survival (biomass remaining viable, COMSTAT) [3]: ~70%

Compound: colistin
- % cell survival, CFU/mL(after treatment)/CFU/mL(pre-treatment) ([1]; antibiotic at 25× the MIC): ~10%
- % cell survival, CFU/mL(after treatment)/CFU/mL(pre-treatment) ([1]; antibiotic at 50× the MIC): ~1%
- tolerance or susceptibility of pellicle biofilms (CLSM) [2]: susceptible
- fluorescence signal from viable cells expressing EYFP ([2]; colistin at 50× the MIC): undetectable
- MIC (P. aeruginosa): 1 μg/mL and 0.79 μM
- % survival (biomass remaining viable, COMSTAT) [3]: ~20%
